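Protocol summary: plate cells (96-well), add compound at 5 concentrations, incubate 48 h, interpolate endpoints linearly. GI50 is the concentration that inhibits growth by half.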 Calls of active or inactive are those of the source. Rule as the data show it: active = GI50 up to about 1.1 µM and inactive = higher.
What was measured:
Experiment in all cases: DTP human tumour cell line panel, 48 h
K562 = tested on: K562
RPMI-8226 = tested on: RPMI-8226
786-0 = tested on: 786-0
HT-29 = tested on: HT-29
CAKI-1 = tested on: CAKI-1
ACHN = tested on: ACHN
RXF 393 = tested on: RXF 393
SK-MEL-2 = tested on: SK-MEL-2
NCI/ADR-RES = tested on: NCI/ADR-RES
TK-10 = tested on: TK-10
HOP-92 = tested on: HOP-92
HCC 2998 = tested on: HCC 2998
MDA-N = tested on: MDA-N
SF-295 = tested on: SF-295
A549 = tested on: A549
Malme-3M = tested on: Malme-3M
NCI-H23 = tested on: NCI-H23
UACC-62 = tested on: UACC-62
IGROV-1 = tested on: IGROV-1
SK-MEL-5 = tested on: SK-MEL-5

Compound	GI50 (K562)	GI50 (RPMI-8226)	GI50 (786-0)	GI50 (HT-29)	GI50 (CAKI-1)	GI50 (ACHN)	GI50 (RXF 393)	GI50 (SK-MEL-2)	GI50 (NCI/ADR-RES)	GI50 (TK-10)	GI50 (HOP-92)	GI50 (HCC 2998)	GI50 (MDA-N)	GI50 (SF-295)	GI50 (A549)	GI50 (Malme-3M)	GI50 (NCI-H23)	GI50 (UACC-62)	GI50 (IGROV-1)	GI50 (SK-MEL-5)
FC(F)(Sc1ncc[nH]1)c1nc2ccccc2o1	> 100 µM (inactive)	> 100 µM (inactive)	> 100 µM (inactive)	> 100 µM (inactive)	> 100 µM (inactive)	> 100 µM (inactive)	> 100 µM (inactive)	> 100 µM (inactive)	> 100 µM (inactive)	> 100 µM (inactive)	> 100 µM (inactive)	> 100 µM (inactive)	> 100 µM (inactive)	> 100 µM (inactive)	> 100 µM (inactive)	> 100 µM (inactive)	> 100 µM (inactive)	> 100 µM (inactive)	> 100 µM (inactive)	> 100 µM (inactive)
OC1COC(OCc2ccccc2)C(O)C1O (stereo not given)	> 100 µM (inactive)	> 100 µM (inactive)	> 100 µM (inactive)	> 100 µM (inactive)	> 100 µM (inactive)	> 100 µM (inactive)	> 100 µM (inactive)	> 100 µM (inactive)	> 100 µM (inactive)	> 100 µM (inactive)	> 100 µM (inactive)	> 100 µM (inactive)	> 100 µM (inactive)	> 100 µM (inactive)	> 100 µM (inactive)	> 100 µM (inactive)	> 100 µM (inactive)	> 100 µM (inactive)	> 100 µM (inactive)	> 100 µM (inactive)
Nc1nc(Cl)c(N)c(NCC2(CO)CCC(CCc3ccccc3)C2)n1 (stereo not given)	0.183 µM (active)	14.3 µM (inactive)	20.4 µM (inactive)	13.3 µM (inactive)	1.47 µM (inactive)	18.7 µM (inactive)	17.4 µM (inactive)	15.7 µM (inactive)	> 39.5 µM (inactive)	21.3 µM (inactive)	19.3 µM (inactive)	16.9 µM (inactive)	15.2 µM (inactive)	10.6 µM (inactive)	11.8 µM (inactive)	1.83 µM (inactive)	0.0435 µM (active)	12.1 µM (inactive)	22.8 µM (inactive)	0.033 µM (active)
O=C1CC(=O)c2c(N3CCCC3)sc(N3CCCC3)c21	57.4 µM (inactive)	> 100 µM (inactive)	> 100 µM (inactive)	> 100 µM (inactive)	> 100 µM (inactive)	> 100 µM (inactive)	> 100 µM (inactive)	> 100 µM (inactive)	> 100 µM (inactive)	> 100 µM (inactive)	> 100 µM (inactive)	> 100 µM (inactive)	> 100 µM (inactive)	> 100 µM (inactive)	> 100 µM (inactive)	> 100 µM (inactive)	> 100 µM (inactive)	> 100 µM (inactive)	> 100 µM (inactive)	> 100 µM (inactive)
CC(=O)OCC1OC(n2c(-c3ccccc3)c(/N=N/c3ccccc3)c(C)c(C#N)c2=S)C(OC(C)=O)C(OC(C)=O)C1OC(C)=O (stereo not given)	> 100 µM (inactive)	> 100 µM (inactive)	> 100 µM (inactive)	> 100 µM (inactive)	> 100 µM (inactive)	> 100 µM (inactive)	> 100 µM (inactive)	> 100 µM (inactive)	> 100 µM (inactive)	> 100 µM (inactive)	28.4 µM (inactive)	> 100 µM (inactive)	> 100 µM (inactive)	> 100 µM (inactive)	> 100 µM (inactive)	> 100 µM (inactive)	> 100 µM (inactive)	> 100 µM (inactive)	> 100 µM (inactive)	> 100 µM (inactive)
COc1cc(C2c3cc4c(cc3OC(NCCO)C2C)OCO4)cc(OC)c1OC (stereo not given)	0.195 µM (active)	0.389 µM (active)	1.8 µM (inactive)	0.369 µM (active)	0.485 µM (active)	0.755 µM (active)	0.426 µM (active)	3.42 µM (inactive)	0.807 µM (active)	15.9 µM (inactive)	0.188 µM (active)	0.824 µM (active)	0.401 µM (active)	0.274 µM (active)	0.762 µM (active)	0.431 µM (active)	1.19 µM (inactive)	0.378 µM (active)	0.687 µM (active)	0.323 µM (active)
C/C(=N\Nc1nc2ccccc2[nH]1)c1cc2ccccc2cn1	0.0159 µM (active)	< 0.01 µM (active)	0.048 µM (active)	0.0104 µM (active)	< 0.01 µM (active)	< 0.0139 µM (active)	0.208 µM (active)	0.508 µM (active)	0.0284 µM (active)	0.122 µM (active)	0.0755 µM (active)	1.45 µM (inactive)	0.171 µM (active)	0.166 µM (active)	0.0775 µM (active)	< 0.01 µM (active)	0.0345 µM (active)	0.0531 µM (active)	< 0.0175 µM (active)	0.0494 µM (active)

Reference: ChEMBL document CHEMBL1201862, “PubChem BioAssay data set” (2004)
